Source: patent US9199943B2, “2-(poly-substituted aryl)-6-amino-5-halo-4-pyrimidinecarboxylic acids and their use as herbicides” (Dow AgroSciences, LLC., priority 2006, dated 2015)
One block for each molecule: values may come before it.

Columns and labels:
[1] = system: CHEAL = lambsquarter (Chenopodium album); test: General postemergence herbicidal activity, lambsquarter; type: in vivo; conditions: post-emergent, 140 g ai/ha, visual score after 14 days (0 no injury, 100 complete kill); for pest or weed control at 140 g/ha: Chenopodium album, post-emergence, 336 h
Description: (§1) Seeds or nutlets of the desired test plant species were planted in Sun Gro MetroMix® 306 planting mixture, which typically has a pH of 6.0 to 6.8 and an organic matter content of about 30 percent, in plastic pots with a surface area of 64 square centimeters. When required to ensure good germination and healthy plants, a fungicide treatment and/or other chemical or physical treatment was applied. The plants were grown for 7-21 days in a greenhouse with an approximate 15 hour photoperiod which was maintained at about 23-29° C. during the day and 22-28° C. during the night. Nutrients and water were added on a regular basis and supplemental lighting was provided with overhead metal halide 1000-Watt lamps as necessary. The plants were employed for testing when they reached the first or second true leaf stage.
(§2) A weighed amount, determined by the highest rate to be tested, of each test compound was placed in a 25 mL glass vial and was dissolved in 4 mL of a 97:3 v/v (volume/volume) mixture of acetone and dimethyl sulfoxide (DMSO) to obtain concentrated stock solutions. […] The concentrated stock solutions obtained were diluted with 20 mL of an aqueous mixture containing acetone, water, isopropyl alcohol, DMSO, Atplus 411F crop oil concentrate, and Triton X-155 surfactant in a 48.5:39:10:1.5:1.0:0.02 v/v ratio to obtain spray solutions containing the highest application rates. Additional application rates were obtained by serial dilution of 12 mL of the high rate solution into a solution containing 2 mL of 97:3 v/v (volume/volume) mixture of acetone and dimethyl sulfoxide (DMSO) and 10 mL of an aqueous mixture containing acetone, water, isopropyl alcohol, DMSO, Atplus 411F crop oil concentrate, and Triton X-155 surfactant in a 48.5:39:10:1.5:1.0:0.02 v/v ratio to obtain ½×, ¼×, ⅛× and 1/16× rates of the high rate. Compound requirements are based upon a 12 mL application volume at a rate of 187 L/ha. Formulated compounds were applied to the plant material with an overhead Mandel track sprayer equipped with a 8002E nozzles calibrated to deliver 187 L/ha over an application area of 0.503 square meters at a spray height of 18 inches (43 cm) above the average plant canopy height. Control plants were sprayed in the same manner with the solvent blank.
(§3) The treated plants and control plants were placed in a greenhouse as described above and watered by sub-irrigation to prevent wash-off of the test compounds. After 14 days, the condition of the test plants as compared with that of the untreated plants was determined visually and scored on a scale of 0 to 100 percent where 0 corresponds to no injury and 100 corresponds to complete kill.
(§4) By applying the well-accepted probit analysis as described by J. Berkson in Journal of the […], 48, 565 (1953) and by D. Finney in “Probit Analysis” Cambridge University Press (1952), the above data can be used to calculate GR50 and GR80 values, which are defined as growth reduction factors that correspond to the effective dose of herbicide required to kill or control 50 percent or 80 percent, respectively, of a target plant.

[2] = system: ABUTH = velvetleaf (Abutilon theophrasti); test: General postemergence herbicidal activity, velvetleaf; type: in vivo; conditions: post-emergent, 140 g ai/ha, visual score after 14 days (0 no injury, 100 complete kill); for pest or weed control at 140 g/ha: Abutilon theophrasti, post-emergence, 336 h
Description: as §1, §2, §3, §4

[3] = system: HELAN = sunflower (Helainthus annuus); test: General postemergence herbicidal activity, sunflower; type: in vivo; conditions: post-emergent, 140 g ai/ha, visual score after 14 days (0 no injury, 100 complete kill); for pest or weed control at 140 g/ha: post-emergence, 336 h
Description: as §1, §2, §3, §4

[4] = system: CHEAL = lambsquarter (Chenopodium album); test: General preemergence herbicidal activity, lambsquarter; type: in vivo; conditions: pre-emergent, 140 g ai/ha, visual score after 20-22 days; for pest or weed control at 140 g/ha: Chenopodium album, pre-emergence, 480 h
Source text: (§5) Seeds of the desired test plant species were planted in a soil matrix prepared by mixing a loam soil (43 percent silt, 19 percent clay, and 38 percent sand, with a pH of about 8.1 and an organic matter content of about 1.5 percent) and sand in a 70 to 30 ratio. The soil matrix was contained in plastic pots with a surface area of 113 square centimeters. When required to ensure good germination and healthy plants, a fungicide treatment and/or other chemical or physical treatment was applied. A weighed amount, determined by the highest rate to be tested, of each test compound was placed in a 25 mL glass vial and was dissolved in 6 mL of a 97:3 v/v (volume/volume) mixture of acetone and DMSO to obtain concentrated stock solutions. […] The stock solutions obtained were diluted with 18 mL of a 0.1% v/v aqueous solution of Tween® 20 surfactant to obtain spray solutions containing the highest application rate. Additional application rates were obtained by serial dilution of 12 mL of the high rate solution into a solution containing 3 mL of 97:3 v/v mixture of acetone and DMSO and 9 mL of the 0.1% v/v aqueous solution of Tween® 20 surfactant to obtain 1⁄2×, 1⁄4×, 1⁄8× and 1/16× rates of the high rate. Compound requirements are based upon a 12 mL application volume at a rate of 187 L/ha. Formulated compounds were applied to the plant material with an overhead Mandel track sprayer equipped with a […] nozzles calibrated to deliver 187 L/ha over an application area of 0.503 square meters at a spray height of 18 inches (43 cm) above the soil surface. Control plants were sprayed in the same manner with the solvent blank. The treated pots and control pots were placed in a greenhouse maintained with an approximate 15 hour photoperiod and temperatures of about 23-29° C. during the day and 22-28° C. during the night. Nutrients and water were added on a regular basis and supplemental lighting was provided with overhead metal halide 1000-Watt lamps as necessary. The water was added by top-irrigation. After 20-22 days, the condition of the test plants that germinated and grew as compared with that of the untreated plants that emerged and grew was determined visually and scored on a scale of 0 to 100 percent where 0 corresponds to no injury and 100 corresponds to complete kill or no emergence.

[5] = system: ABUTH = velvetleaf (Abutilon theophrasti); test: General preemergence herbicidal activity, velvetleaf; type: in vivo; conditions: pre-emergent, 140 g ai/ha, visual score after 20-22 days; for pest or weed control at 140 g/ha: Abutilon theophrasti, pre-emergence, 480 h
Source text: as §5

[6] = system: HELAN = sunflower (Helianthus annuus); test: General preemergence herbicidal activity, sunflower; type: in vivo; conditions: pre-emergent, 140 g ai/ha, visual score after 20-22 days; for pest or weed control at 140 g/ha: Helianthus annuus, pre-emergence, 480 h
Source text: as §5

melting point: 172 to 173 °C
Compound: COc1c(Cl)ccc(-c2nc(N)c(Cl)c(C(=O)O)n2)c1F [Compound 15, 6-amino-5-chloro-2-(4-chloro-2-fluoro-3-methoxyphenyl)-pyrimidine-4-carboxylic acid]
pest or weed control at 140 g/ha [1]: 100% | pest or weed control at 140 g/ha [2]: 100% | pest or weed control at 140 g/ha [3]: 100% | pest or weed control at 140 g/ha [4]: 100% | pest or weed control at 140 g/ha [5]: 100% | pest or weed control at 140 g/ha [6]: 100%

melting point: 139 to 141 °C
Compound: Cc1c(F)sc(-c2nc(N)c(Cl)c(C(=O)O)n2)c1Cl [Compound 16, 6-Amino-5-chloro-2-(4-chloro-2-fluoro-3-methylthiophenyl)pyrimidine-4-carboxylic acid]

melting point: 210 to 212 °C
Compound: Cc1c(Cl)ccc(-c2nc(N)c(Cl)c(C(=O)O)n2)c1F [Compound 20, 6-Amino-5-chloro-2-(4-chloro-2-fluoro-3-methylphenyl)pyrimidine-4-carboxylic acid]
pest or weed control at 140 g/ha [1]: 100% | pest or weed control at 140 g/ha [2]: 90% | pest or weed control at 140 g/ha [3]: 100%

melting point: 181 to 183 °C
Compound: CN(C)c1c(Cl)ccc(-c2nc(N)c(Cl)c(C(=O)O)n2)c1F [Compound 23, 6-Amino-5-chloro-2-(4-chloro-3-dimethylamino-2-fluorophenyl)pyrimidine-4-carboxylic acid]
pest or weed control at 140 g/ha [1]: 100% | pest or weed control at 140 g/ha [2]: 95% | pest or weed control at 140 g/ha [3]: 95%

melting point: 166 to 168 °C
Compound: Nc1nc(-c2ccc(Cl)c(C(F)F)c2F)nc(C(=O)O)c1Cl [Compound 24, 6-Amino-5-chloro-2-(4-chloro-3-difluoromethyl-2-fluorophenyl)pyrimidine-4-carboxylic acid]
pest or weed control at 140 g/ha [1]: 95% | pest or weed control at 140 g/ha [2]: 80% | pest or weed control at 140 g/ha [3]: 90%

melting point: 173 to 175 °C
Compound: COc1c(Cl)ccc(-c2nc(N)c(Br)c(C(=O)O)n2)c1F [Compound 25, 6-Amino-5-bromo-2-(4-chloro-2-fluoro-3-methoxyphenyl)pyrimidine-4-carboxylic acid]
pest or weed control at 140 g/ha [1]: 100% | pest or weed control at 140 g/ha [2]: 95% | pest or weed control at 140 g/ha [3]: 100%

Second part, the molecule before the results:

Compound: COC(=O)c1nc(-c2cc(OC)c(Cl)cc2F)nc(N)c1Cl [Compound 5, 6-Amino-5-chloro-2-(4-chloro-2-fluoro-5-methoxyphenyl)pyrimidine-4-carboxylic acid methyl ester]
pest or weed control at 140 g/ha [1]: 100% | pest or weed control at 140 g/ha [2]: 95% | pest or weed control at 140 g/ha [3]: 95%

Compound: COC(=O)c1nc(-c2ccc(Cl)c(C)c2F)nc(N)c1Cl [Compound 11, 6-Amino-5-chloro-2-(4-chloro-2-fluoro-3-methylphenyl)pyrimidine-4-carboxylic acid methyl ester]
pest or weed control at 140 g/ha [1]: 95% | pest or weed control at 140 g/ha [2]: 95% | pest or weed control at 140 g/ha [3]: 100% | pest or weed control at 140 g/ha [4]: 60% | pest or weed control at 140 g/ha [5]: 100% | pest or weed control at 140 g/ha [6]: 100% | melting point: 166 to 168 °C

Compound: COC(=O)c1nc(-c2ccc(Cl)c(OC)c2F)nc(N)c1F [Compound 12, 6-amino-2-(4-chloro-2-fluoro-3-methoxy-phenyl)-5-fluoro-pyrimidine-4-carboxylic acid methyl ester]
pest or weed control at 140 g/ha [1]: 95% | pest or weed control at 140 g/ha [2]: 85% | pest or weed control at 140 g/ha [3]: 100% | melting point: 200 to 202 °C

Compound: COC(=O)c1nc(-c2ccc(Cl)c(SC(F)(F)F)c2F)nc(N)c1Cl [Compound 14, 6-amino-5-chloro-2-(4-chloro-2-fluoro-3-trifluoro-methylthiophenyl)pyrimidine-4-carboxylic acid methyl ester]
pest or weed control at 140 g/ha [1]: 50% | pest or weed control at 140 g/ha [2]: 80% | pest or weed control at 140 g/ha [3]: 90% | melting point: 167 to 169 °C

Compound: COc1cc(-c2nc(N)c(Cl)c(C(=O)O)n2)c(F)cc1Cl [Compound 17, 6-Amino-5-chloro-2-(4-chloro-2-fluoro-5-methoxyphenyl)pyrimidine-4-10 carboxylic acid]
% Control CHEAL [1]: 100% | % Control ABUTH [2]: 50% | % Control HELAN [3]: 80% | % Control CHEAL [4]: 95% | % Control ABUTH [5]: 100% | % Control HELAN [6]: 0%

Compound: COc1c(Cl)ccc(-c2nc(N)c(Cl)c(C(=O)O)n2)c1Cl [Compound 18, 6-Amino-5-chloro-2-(2,4-dichloro-3-methoxyphenyl)pyrimidine-4-carboxylic acid]
pest or weed control at 140 g/ha [1]: 100% | pest or weed control at 140 g/ha [2]: 75% | pest or weed control at 140 g/ha [3]: 95% | pest or weed control at 140 g/ha [4]: 100% | pest or weed control at 140 g/ha [5]: 100% | pest or weed control at 140 g/ha [6]: 100%

Compound: Nc1nc(-c2ccc(Cl)c(OCC(F)F)c2F)nc(C(=O)O)c1Cl [Compound 21, 6-Amino-5-chloro-2-[4-chloro-3-(2,2-difluoroethoxy)-2-fluorophenyl]-pyrimidine-4-carboxylic acid]
pest or weed control at 140 g/ha [1]: 90% | pest or weed control at 140 g/ha [2]: 0% | pest or weed control at 140 g/ha [3]: 80%

Compound: Nc1nc(-c2ccc3c(c2F)OCO3)nc(C(=O)O)c1Cl [Compound 22, 6-Amino-5-chloro-2-(4-fluoro-benzo[1,3]-dioxol-5-yl)pyrimidine-4-carboxylic acid]
pest or weed control at 140 g/ha [1]: 95% | pest or weed control at 140 g/ha [2]: 80% | pest or weed control at 140 g/ha [3]: 90%
